From ChEMBL document CHEMBL1641593, “Benzothieno[3,2-b]quinolinium and 3-(phenylthio)quinolinium compounds: Synthesis and evaluation against opportunistic fungal pathogens” (Bioorg Med Chem, 2011) come the findings set out here.

Structures are written as SMILES. ≈ marks a conversion by molar mass, not a printed value. Calls of active or inactive are those of the source. No cut-off for these calls is given here. Where only a bound is given, the exact number is not on record here.

In assay [1] the test system is Aspergillus fumigatus. Description: Antifungal activity against Aspergillus fumigatus ATCC 90906 by CLSI method. The assay is classed as functional, organism-based.
Assay [2] relates to Candida albicans. The assay is described as follows: Antifungal activity against Candida albicans ATCC 90028 by CLSI method. The format is functional, organism-based.
The test system of assay [3] is Cryptococcus neoformans. The assay is described as follows: Antifungal activity against Cryptococcus neoformans ATCC 90113 at 20 ug/ml by CLSI method. The format is functional, organism-based.
Assay [4] has as its system Candida albicans. The assay is described as follows: Antifungal activity against Candida albicans ATCC 90028 at 20 ug/ml by CLSI method. The format is functional, organism-based.
In assay [5] the test system is Pichia kudriavzevii. Description: Antifungal activity against Candida krusei ATCC 6258 by CLSI method. The assay is classed as functional, organism-based.
For assay [6], the system named is Vero. Description: Cytotoxicity against african green monkey Vero cells after 48 hrs by neutral red assay. The assay is classed as cell-based. The note with it: Chlorocebus sabaeus.
For assay [7], the system named is Cryptococcus neoformans. Description: Antifungal activity against Cryptococcus neoformans ATCC 90113 by CLSI method. The assay is classed as functional, organism-based.
In assay [8] the test system is Aspergillus fumigatus. Description: Antifungal activity against Aspergillus fumigatus ATCC 90906 at 20 ug/ml by CLSI method. The format is functional, organism-based.
Where [9] appears, read: Candida albicans, ATCC 90028, read-out: MFC.

Regarding `COc1ccc2c(c1)sc1cc3ccccc3[n+](C)c12.[I-]`, in assay [1], the midpoint of inhibition, the IC50, lay at 1 µg/mL and inhibition of growth (MIC) required 2.5 µg/mL. In assay [2] (Candida albicans, ATCC 90028), the IC50 – broadly, the concentration that gives 50% inhibition – stood at 6 µg/mL and 20 µg/mL was the least that counted as inhibitory (MIC). The outcome in assay [3] was inactive.
`COc1ccc2sc3cc4ccccc4[n+](C)c3c2c1.[I-]` had a half-inhibitory concentration (IC50) in assay [1] of 8 µg/mL. For the same compound, inhibition of growth in assay [1] (MIC) required 20 µg/mL. Besides, the outcome in assay [3] and in assay [4] was inactive.
For the compound `[I-].c1ccc(Sc2cc3ccccc3[n+](CCCCCC3CCCCC3)c2)cc1`, the IC50 in assay [1] turned out to be 8.6 µg/mL; in assay [2] (Candida albicans, ATCC 90028) it was 2.7 µg/mL; in assay [5], 0.7 µg/mL; in assay [6], 4.6 µg/mL; in assay [7], 0.5 µg/mL. Further, the MFC (commonly the lowest tested concentration that kills the fungus rather than only halting it) is more than 20 µg/mL in assay [1], 2.5 µg/mL in assay [5] and 2.5 µg/mL in assay [7]. In addition, the minimum inhibitory concentration (MIC) (in general, the lowest concentration that inhibits growth of the organism) was found to be 10 µg/mL in assay [1]; 5 µg/mL in assay [2] (Candida albicans, ATCC 90028); 1.3 µg/mL in assay [5]; 1.3 µg/mL in assay [7].
In the case of `[I-].c1ccc(CCCCC[n+]2cc(Sc3ccccc3)cc3ccccc32)cc1`, the MFC in assay [1] is more than 20 µg/mL; in assay [2], 20 µg/mL; in assay [2] (setting [9]) it was more than 20 µg/mL; in assay [5] it was 20 µg/mL; in assay [7], 10 µg/mL. Moreover, the MIC in assay [1] is 1.3 µg/mL; in assay [2] (Candida albicans, ATCC 90028), 10 µg/mL; in assay [5] it was 5 µg/mL; in assay [7], 5 µg/mL. The concentration for half-maximal inhibition (IC50) is 5.5 µg/mL in assay [2] (Candida albicans, ATCC 90028); 1.5 µg/mL in assay [5]; 1.5 µg/mL in assay [7].
As to `COc1cccc2c1cc1sc3ccccc3c1[n+]2C`, the result in assay [3] was inactive.
Compound `C[n+]1c2cccc(Cl)c2cc2sc3ccccc3c21.O=S(=O)([O-])C(F)(F)F` had an IC50 in assay [1] of 3 µg/mL. In assay [1], this compound returned a minimum inhibitory concentration (MIC) of 10 µg/mL. The outcome in assay [3] and in assay [4] was inactive.
Consider `C[n+]1c2ccccc2cc2[n-]c3ccccc3c21` [CRYPTOLEPINE], for which the IC50 in assay [6] is 3.2 µg/mL (≈ 13.8 µM); in assay [7], 12.5 µg/mL (≈ 53.8 µM).
In the case of `C[n+]1cc(Sc2ccccc2)cc2ccccc21.[I-]`, the minimum fungicidal concentration (MFC) was 20 µg/mL in assay [1], more than 20 µg/mL in assay [2] (setting [9]) and more than 20 µg/mL in assay [7]. For the same compound, the MIC in assay [1] is more than 2.5 µg/mL; in assay [2] (Candida albicans, ATCC 90028) it was 20 µg/mL; in assay [7] it was 20 µg/mL. In addition, the IC50 in assay [2] (Candida albicans, ATCC 90028) came out at 6 µg/mL; in assay [7] it was 15 µg/mL.
Turning to `C[n+]1c2cccc(O)c2cc2sc3ccccc3c21`, the result in assay [3], in assay [8] and in assay [4] was inactive.
Consider `C[C@@H]1[C@H](O)[C@@H](C)/C=C/C=C/C=C/C=C/C=C/C=C/C=C/[C@H](O[C@@H]2O[C@H](C)[C@@H](O)[C@H](N)[C@@H]2O)C[C@@H]2O[C@](O)(C[C@@H](O)C[C@@H](O)[C@H](O)CC[C@@H](O)C[C@@H](O)CC(=O)O[C@H]1C)C[C@H](O)[C@H]2C(=O)O` [AMPHOTERICIN B], for which the IC50 in assay [1] and in assay [7] was 1.5 µg/mL (≈ 1.62 µM) in each case. Also, the MIC worked out at 2.5 µg/mL (≈ 2.71 µM) in assay [1]; 0.6 µg/mL (≈ 0.649 µM) in assay [2] (Candida albicans, ATCC 90028); 2.5 µg/mL (≈ 2.71 µM) in assay [7].
On to `COc1cccc2cc3sc4ccccc4c3[n+](C)c12.O=S(=O)([O-])C(F)(F)F`, for which the IC50 in assay [1] was found to be 3 µg/mL; in assay [2] (Candida albicans, ATCC 90028), 15 µg/mL; in assay [7] it was 15 µg/mL. In addition, the MIC was 5 µg/mL in assay [1]; more than 20 µg/mL in assay [2] (Candida albicans, ATCC 90028); more than 20 µg/mL in assay [7].
With `C[n+]1c2ccccc2cc2sc3ccc(Cl)cc3c21.[I-]`, the half-maximal inhibitory concentration (IC50) in assay [2] (Candida albicans, ATCC 90028) is 20 µg/mL; in assay [6] it was more than 10 µg/mL. Moreover, the MIC in assay [2] (Candida albicans, ATCC 90028) is more than 20 µg/mL. The outcome in assay [3] and in assay [8] was inactive.
Consider `C[n+]1c2ccccc2cc2sc3cc(Cl)ccc3c21.[I-]`, for which the IC50 in assay [1] is 9.5 µg/mL; in assay [2] (Candida albicans, ATCC 90028) it was 2.5 µg/mL; in assay [6], more than 10 µg/mL. Besides, the minimal inhibitory concentration (MIC) in assay [1] was more than 20 µg/mL; in assay [2] (Candida albicans, ATCC 90028) it was more than 20 µg/mL. Moreover, the outcome in assay [3] was inactive.
With `C[n+]1c2cc(Cl)ccc2cc2sc3ccccc3c21.O=S(=O)([O-])C(F)(F)F`, the result in assay [8] and in assay [4] was inactive. For the same compound, the figures for the IC50 in assay [6] and in assay [7] were more than 10 µg/mL and 10 µg/mL, respectively. Besides, in assay [7], the minimum inhibitory concentration (MIC) was more than 20 µg/mL.
`COc1cccc2c1cc1sc3ccccc3c1[n+]2C.O=S(=O)([O-])C(F)(F)F`: the IC50 is 0.8 µg/mL in assay [1]; 15 µg/mL in assay [2] (Candida albicans, ATCC 90028); more than 4.7 µg/mL in assay [6]. The MIC was 1.3 µg/mL in assay [1] and more than 20 µg/mL in assay [2] (Candida albicans, ATCC 90028).
With `C[n+]1c2ccccc2cc2sc3ccccc3c21.O=S(=O)([O-])C(F)(F)F`, the MIC is more than 20 µg/mL in assay [1]; more than 20 µg/mL in assay [2] (Candida albicans, ATCC 90028); more than 20 µg/mL in assay [7]. Also, the half-inhibitory concentration (IC50) is 10 µg/mL in assay [2] (Candida albicans, ATCC 90028); more than 23.8 µg/mL in assay [6]; more than 15 µg/mL in assay [7].
Turning to `COc1cccc2c1cc1sc3ccccc3c1[n+]2C.[I-]`, in assay [1], the IC50 was 1.5 µg/mL and the MIC stood at 2.5 µg/mL. Moreover, in assay [2] (Candida albicans, ATCC 90028), half-maximal inhibition (IC50) required 15 µg/mL and the minimum inhibitory concentration (MIC) is more than 20 µg/mL.
Consider `C[n+]1c2ccccc2cc2sc3ccccc3c21.[I-]`, for which the minimal inhibitory concentration (MIC) in assay [1] was more than 20 µg/mL; in assay [2] (Candida albicans, ATCC 90028), 7.8 µg/mL; in assay [7] it was more than 20 µg/mL. Moreover, the IC50 in assay [6] was more than 23.8 µg/mL.
As to `COc1cccc2c1sc1cc3ccccc3[n+](C)c12.[I-]`, the IC50 was 3 µg/mL in assay [1]; 7 µg/mL in assay [2] (Candida albicans, ATCC 90028); more than 10 µg/mL in assay [6]; 10 µg/mL in assay [7]. The MIC in assay [1] was 5 µg/mL; in assay [2] (Candida albicans, ATCC 90028), more than 20 µg/mL; in assay [7] it was more than 20 µg/mL.
Take `C[n+]1c2ccccc2cc2sc3c(Cl)cccc3c21.[I-]`: the IC50 in assay [1] is 6.5 µg/mL; in assay [2] (Candida albicans, ATCC 90028), more than 20 µg/mL; in assay [7], 15 µg/mL. Besides, the minimum inhibitory concentration (MIC) is 10 µg/mL in assay [1]; more than 20 µg/mL in assay [2] (Candida albicans, ATCC 90028); more than 20 µg/mL in assay [7].
Take `COc1ccc2c(c1)cc1sc3ccccc3c1[n+]2C.[I-]`: the IC50 was 20 µg/mL in assay [1]; more than 20 µg/mL in assay [2] (Candida albicans, ATCC 90028); more than 23.8 µg/mL in assay [6]. Moreover, the minimal inhibitory concentration (MIC) in assay [2] (Candida albicans, ATCC 90028) is more than 20 µg/mL; in assay [7], 8 µg/mL.
As for `C[n+]1c2ccc(Cl)cc2cc2sc3ccccc3c21.[I-]`, the minimal inhibitory concentration (MIC) in assay [1] was 2.5 µg/mL; in assay [2] (Candida albicans, ATCC 90028), more than 20 µg/mL; in assay [7] it was more than 20 µg/mL. Moreover, the IC50 in assay [2] (Candida albicans, ATCC 90028) is 2 µg/mL; in assay [6], more than 23.8 µg/mL; in assay [7], 15 µg/mL.
